Literature values as cited in patent US7485658B2, “N-substituted pyrazolyl-amidyl-benzimidazolyl c-Kit inhibitors” (OSI Pharmaceuticals, Inc., priority 2003, dated 2009).
Where a name gives a salt, the structure may show the parent alone.

Experiments:
[1] = tested on: MO7e human leukemia cells
[2] = tested on: MO7e human leukemia cells; remark: listed apart in the source

Cc1ccc(NC(=O)c2ccc(CN3CCN(C)CC3)cc2)cc1Nc1nccc(-c2cccnc2)n1 [Gleevec, imatinib mesylate]
Kit ligand-stimulated growth of MO7e cells ([1]; Kit ligand stimulated): inhibited | apoptosis in MO7e cells ([1]; Kit ligand stimulated conditions): induces apoptosis | GM-CSF stimulated growth of MO7e cells [2]: not affected
